Measured values reported in patent publication US20210085640A1, “ACYLATED CATECHIN POLYPHENOLS AND METHODS OF THEIR USE FOR THE TREATMENT OF CANCER” (Flagship Pioneering Innovations V, Inc., priority 2018, published 2021).

Key:
[1] = Stability in Simulated Intestinal Fluid (SIF); assay type: in vitro ADME; conditions: for Assay 2 (SIF) (% @ Remaining 4 hours): SIF pH 6.7 with pancreatin, 1 μM, 37° C.; for selective delivery to the upper intestine: conclusion drawn from Table 1 (SGF and SIF stability)
Method: SIF Stability of acylated active agents in Simulated Intestinal Fluid (SIF). This assay was used to assess the stability of an acylated active agent in a small intestine.
Phosphate buffer was prepared by dissolving 0.42 g of sodium hydroxide pellets and 3.95 g of monobasic sodium phosphate monohydrate and 6.19 g of sodium chloride in ultrapure water (MilliQ®, Millipore Sigma, Darmstadt, Germany). The pH was adjusted to 6.7 using aq. HCl and aq. NaOH, as necessary, and the solution was diluted with ultrapure water to produce 1 L of the pH 6.7 buffer.
112 mg FaSSIF powder (Biorelevant™, London, UK) was dissolved in 50 mL of the pH 6.7 buffer. 2 to 3 mL of the resulting solution were then added to 500 mg pancreatin (Millipore Sigma, Darmstadt, Germany). The resulting mixture was agitated by finger tapping the vessel containing the mixture until milky suspension formed. At this time, the remainder of the 50 mL FaSSiF/pH 6.7 buffer solution was added. The resulting suspension was flipped upside down 10 times to produce SIF, which was used fresh.
Test compounds were dissolved in DMSO stock to 1 mM. An aliquot of the DMSO stock solution was removed and diluted in the SIF media in 15 mL falcon tubes to produce a mixture with a tested compound concentration of 1 μM. A 1 mL aliquot was immediately removed and diluted once with 1 volume of acetonitrile for T0 timepoint. The mixture was sealed and agitated at 37° C. in an incubator. Aliquots (1 mL) were removed at regular intervals and immediately quenched by the addition of 1 volume of acetonitrile. The resulting samples were analyzed by LC/MS to determine degradation rates.

[2] = Stability in Simulated Gastric Fluid (SGF); assay type: in vitro ADME; conditions: SGF pH 1.6 with pepsin, 1 μM, 37° C.
Method: Stability of acylated active agents in Simulated Gastric Fluid (SGF). This assay was used to assess the stability of an acylated active agent in a stomach.
Medium was prepared by dissolving 2 g of sodium chloride in 0.6 L in ultrapure water (MilliQ®, Millipore Sigma, Darmstadt, Germany). The pH was adjusted to 1.6 with 1N hydrochloric acid, and the volume was then adjusted to 1 L with purified water.
60 mg FaSSIF powder (Biorelevant™, London, UK) were dissolved in 500 mL buffer (above). Pepsin was added (0.1 mg/mL) (Millipore Sigma, Darmstadt, Germany), and the solution was stirred. The resulting SGF media were used fresh for each experiment.
Test compounds were dissolved in DMSO stock to 1 mM. An aliquot of the DMSO stock solution was removed and diluted in the SGF Media in 15 mL falcon tubes to generate a total compound concentration of 1 μM. A 1 mL aliquot was immediately removed and diluted once with 1 volume of acetonitrile for T0 timepoint. The mixture was sealed and mixed at 37° C. in an incubator. Aliquots (1 mL) were removed at regular intervals and immediately quenched by the addition of 1 volume of acetonitrile. The resulting samples were analyzed by LC/MS to determine degradation rates

SMILES	Assay 2 (SIF) (% @ Remaining 4 hours) [1]	selective delivery to the upper intestine [1]	Assay 1 (SGF) (% Remaining @ 1 hours) [2]
CC(=O)Oc1cc(OC(C)=O)c2c(=O)c(OC(C)=O)c(-c3ccc(OC(C)=O)c(OC(C)=O)c3)oc2c1 [Compound 4, [2-acetoxy-4-(3,5,7-triacetoxy-4-oxo-chromen-2-yl)phenyl] acetate]	A (<25% of the tested compound remaining)	can be selectively delivered to the upper intestine	C (>75% of the tested compound remaining)
CCCC(=O)Oc1cc(OC(=O)CCC)c2c(=O)c(OC(=O)CCC)c(-c3ccc(OC(=O)CCC)c(OC(=O)CCC)c3)oc2c1 [Compound 5, [2-butanoyloxy-4-[3,5,7-tri(butanoyloxy)-4-oxo-chromen-2-yl]phenyl] butanoate]	B (25-75% of the tested compound remaining)	can be selectively delivered to the upper intestine	C (>75% of the tested compound remaining)
CC(=O)Oc1ccc(C2CC(=O)c3c(OC(C)=O)cc(OC(C)=O)cc3O2)cc1 (stereo not drawn) [Compound 9, [4-(5,7-diacetoxy-4-oxo-chroman-2-yl)phenyl] acetate]	A (<25% of the tested compound remaining)	can be selectively delivered to the upper intestine	C (>75% of the tested compound remaining)
CCCC(=O)Oc1ccc(C2CC(=O)c3c(OC(=O)CCC)cc(OC(=O)CCC)cc3O2)cc1 (stereo not drawn) [Compound 10, [4-[5,7-di(butanoyloxy)-4-oxo-chroman-2-yl]phenyl] butanoate]	A (<25% of the tested compound remaining)		B (25-75% of the tested compound remaining)
CCC(=O)Oc1cc(O)c2c(=O)cc(-c3ccc(OC(=O)CC)c(OC(=O)CC)c3)oc2c1 [Compound 12, 4-(5-hydroxy-4-oxo-7-(propionyloxy)-4H-chromen-2-yl)-1,2-phenylene dipropionate]	A (<25% of the tested compound remaining)	can be selectively delivered to the upper intestine	C (>75% of the tested compound remaining)
CCC(=O)Oc1cc(OC(=O)CC)c2c(=O)c(OC(=O)CC)c(-c3cc(OC(=O)CC)c(OC(=O)CC)c(OC(=O)CC)c3)oc2c1 [Compound 13, [4-oxo-3,5-di(propanoyloxy)-2-[3,4,5-tri(propanoyloxy)phenyl]chromen-7-yl] propanoate]	A (<25% of the tested compound remaining)	can be selectively delivered to the upper intestine	C (>75% of the tested compound remaining)
CCC(=O)Oc1ccc2c(c1)oc(=O)c1cc(OC(=O)CC)c(OC(=O)CC)cc12 [Compound 18, [6-oxo-8,9-di(propanoyloxy)benzo[c]chromen-3-yl] propanoate]	A (<25% of the tested compound remaining)	can be selectively delivered to the upper intestine	C (>75% of the tested compound remaining)
CCCC(=O)OCC[C@@H](C)OC(=O)Oc1ccc(/C=C/c2cc(OC(=O)O[C@H](C)CCOC(=O)CCC)cc(OC(=O)O[C@H](C)CCOC(=O)CCC)c2)cc1 [Compound 25, [(3R)-3-[4-[(E)-2-[3,5-bis[[(1R)-3-butanoyloxy-1-methyl-propoxy]carbonyloxy]phenyl]vinyl]phenoxy]carbonyloxybutyl] butanoate]	A (<25% of the tested compound remaining)	can be selectively delivered to the upper intestine	C (>75% of the tested compound remaining)
CCCC(=O)O[C@H](C)CCOC(=O)Oc1ccc(/C=C/c2cc(OC(=O)OCC[C@@H](C)OC(=O)CCC)cc(OC(=O)OCC[C@@H](C)OC(=O)CCC)c2)cc1 [Compound 26, [(1R)-3-[4-[(E)-2-[3,5-bis[[(3R)-3-butanoyloxybutoxy]carbonyloxy]phenyl]vinyl]phenoxy]carbonyloxy-1-methyl-propyl] butanoate]	B (25-75% of the tested compound remaining)		C (>75% of the tested compound remaining)
CCC(=O)OCC[C@@H](C)OC(=O)Oc1ccc(/C=C/c2cc(OC(=O)O[C@H](C)CCOC(=O)CC)cc(OC(=O)O[C@H](C)CCOC(=O)CC)c2)cc1 [Compound 27, [(3R)-3-[4-[(E)-2-[3,5-bis[[(1R)-1-methyl-3-propanoyloxy-propoxy]carbonyloxy]phenyl]vinyl]phenoxy]carbonyloxybutyl] propanoate]	A (<25% of the tested compound remaining)	can be selectively delivered to the upper intestine	C (>75% of the tested compound remaining)
CCC(=O)O[C@H](C)CCOC(=O)Oc1ccc(/C=C/c2cc(OC(=O)OCC[C@@H](C)OC(=O)CC)cc(OC(=O)OCC[C@@H](C)OC(=O)CC)c2)cc1 [Compound 28, (2R,2′R)-((((5-(E)-4-((((R)-3-(propionyloxy)butoxy)carbonyl)oxy)styryl)-1,3-phenylene)bis(oxy))bis(carbonyl))bis(oxy))bis(butane-4,2-diyl) dipropionate]	A (<25% of the tested compound remaining)		B (25-75% of the tested compound remaining)
CC(=O)OCC[C@@H](C)OC(=O)Oc1ccc(/C=C/c2cc(OC(=O)O[C@H](C)CCOC(C)=O)cc(OC(=O)O[C@H](C)CCOC(C)=O)c2)cc1 [Compound 33, [(3R)-3-[4-[(E)-2-[3,5-bis[[(1R)-3-acetoxy-1-methyl-propoxy]carbonyloxy]phenyl]vinyl]phenoxy]carbonyloxybutyl] acetate]	A (<25% of the tested compound remaining)	can be selectively delivered to the upper intestine	C (>75% of the tested compound remaining)
CC(=O)O[C@H](C)CCOC(=O)Oc1ccc(/C=C/c2cc(OC(=O)OCC[C@@H](C)OC(C)=O)cc(OC(=O)OCC[C@@H](C)OC(C)=O)c2)cc1 [Compound 34, [(1R)-3-[4-[(E)-2-[3,5-bis[[(3R)-3-acetoxybutoxy]carbonyloxy]phenyl]vinyl]phenoxy]carbonyloxy-1-methyl-propyl] acetate]	A (<25% of the tested compound remaining)	can be selectively delivered to the upper intestine	C (>75% of the tested compound remaining)
